Assay results reported in patent US20240197685A1, “SELECTIVE ANGIOTENSIN II RECEPTOR LIGANDS” (priority 2021, published 2024).
Values joined by “and” are separate entries in the source; they are usually repeats but may differ in a detail not shown here. Equal entries are not always repeated. Where two headings read alike, the source gives them in different places.

Experiments:
[1] = Metabolic stability in pooled human liver microsomes; type: in vitro ADME; conditions: for half-life at 1 μM: human, pooled human liver microsomes, human liver microsomes 0.5 mg/mL, test compound 1 μM, 37° C.
[2] = target: T1, human recombinant AT2 receptor (Homo sapiens, UniProt P50052); assay: Binding to AT2 receptor, radiometric scintillation assay (Eurofins); conditions: for IC50: read-out: AT2 GraFit IC50; for Ki: seven-point dose-response curve, read-out: AT2R Ki
T1 construct: Eurofins protocol ITEM26
T1 sequence (P50052 1-363): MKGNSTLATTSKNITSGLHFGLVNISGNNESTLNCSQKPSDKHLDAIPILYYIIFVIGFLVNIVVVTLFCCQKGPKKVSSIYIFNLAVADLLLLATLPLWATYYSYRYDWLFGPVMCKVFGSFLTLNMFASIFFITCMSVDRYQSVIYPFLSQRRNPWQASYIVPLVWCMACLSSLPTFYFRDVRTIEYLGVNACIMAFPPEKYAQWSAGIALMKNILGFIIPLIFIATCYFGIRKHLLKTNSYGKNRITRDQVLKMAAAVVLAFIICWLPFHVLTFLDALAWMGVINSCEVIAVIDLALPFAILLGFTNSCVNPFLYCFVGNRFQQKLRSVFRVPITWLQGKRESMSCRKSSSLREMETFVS

[3] = target: T2, human recombinant AT1 receptor (Homo sapiens, UniProt P30556); assay: Binding to AT1 receptor, radiometric scintillation assay (Eurofins); conditions: single run; 1 and 10 μM; ligand 125I(sar1,Ile8)-AT-II
T2 construct: Eurofins protocol ITEM24
T2 sequence (P30556 1-359): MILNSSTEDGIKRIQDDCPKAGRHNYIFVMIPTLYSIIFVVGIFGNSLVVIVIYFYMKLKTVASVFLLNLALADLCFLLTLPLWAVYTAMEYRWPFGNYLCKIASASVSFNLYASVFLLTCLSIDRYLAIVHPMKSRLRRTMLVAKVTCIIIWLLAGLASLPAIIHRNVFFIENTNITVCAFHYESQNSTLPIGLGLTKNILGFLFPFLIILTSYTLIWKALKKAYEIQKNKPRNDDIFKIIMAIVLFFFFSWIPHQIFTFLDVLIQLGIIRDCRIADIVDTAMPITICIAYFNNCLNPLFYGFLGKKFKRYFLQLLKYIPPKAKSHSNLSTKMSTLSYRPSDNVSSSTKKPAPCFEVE

CYP1A = target: T3, CYP1A (Homo sapiens, UniProt P05177); assay: CYP inhibition, human liver microsomes; type: in vitro ADME; conditions: probe phenacetin, substrate phenacetin, read-out: CYP1A Inh %
T3 construct: tissue Eurofins protocol ITEMG232; host or cells: human liver microsomes
T3 sequence (P05177 2-516 limits assumed): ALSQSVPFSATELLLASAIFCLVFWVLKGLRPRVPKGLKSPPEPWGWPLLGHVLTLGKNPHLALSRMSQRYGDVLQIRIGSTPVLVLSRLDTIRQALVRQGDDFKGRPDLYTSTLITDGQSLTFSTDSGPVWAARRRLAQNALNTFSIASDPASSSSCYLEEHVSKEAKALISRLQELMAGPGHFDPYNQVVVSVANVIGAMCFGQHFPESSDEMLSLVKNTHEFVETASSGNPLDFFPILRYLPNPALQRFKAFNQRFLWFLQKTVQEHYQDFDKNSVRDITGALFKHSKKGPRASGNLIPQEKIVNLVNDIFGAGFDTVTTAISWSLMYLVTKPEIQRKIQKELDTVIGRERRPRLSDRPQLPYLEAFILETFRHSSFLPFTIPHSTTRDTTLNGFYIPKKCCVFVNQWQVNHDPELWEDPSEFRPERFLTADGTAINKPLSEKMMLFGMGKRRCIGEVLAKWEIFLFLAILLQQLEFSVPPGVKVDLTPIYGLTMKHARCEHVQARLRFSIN

CYP2B6 = target: T4, CYP2B6 (Homo sapiens, UniProt P20813); assay: CYP inhibition, human liver microsomes; type: in vitro ADME; conditions: probe bupropion, substrate bupropion, read-out: CYP2B6 Inh %
T4 construct: tissue Eurofins protocol ITEMG232; host or cells: human liver microsomes
T4 sequence (P20813 1-491): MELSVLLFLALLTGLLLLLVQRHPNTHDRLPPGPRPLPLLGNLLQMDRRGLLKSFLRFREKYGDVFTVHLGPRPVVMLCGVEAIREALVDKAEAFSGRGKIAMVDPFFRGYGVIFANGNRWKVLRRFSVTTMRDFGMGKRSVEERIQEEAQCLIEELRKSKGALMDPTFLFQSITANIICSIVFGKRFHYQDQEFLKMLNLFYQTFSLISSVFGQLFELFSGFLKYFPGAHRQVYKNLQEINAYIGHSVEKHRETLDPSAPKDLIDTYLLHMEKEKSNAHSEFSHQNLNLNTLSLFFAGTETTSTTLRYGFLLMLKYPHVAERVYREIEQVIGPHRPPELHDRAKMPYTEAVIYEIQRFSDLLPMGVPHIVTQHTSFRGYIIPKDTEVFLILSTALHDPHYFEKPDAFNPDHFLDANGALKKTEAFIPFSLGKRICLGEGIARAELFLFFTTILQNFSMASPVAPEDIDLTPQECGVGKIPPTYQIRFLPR

CYP2C19 = target: T5, CYP2C19 (Homo sapiens, UniProt P33261); assay: CYP inhibition, human liver microsomes; type: in vitro ADME; conditions: probe omeprazole, substrate omeprazole, read-out: CYP2C19 Inh %
T5 construct: tissue Eurofins protocol ITEMG232; host or cells: human liver microsomes
T5 sequence (P33261 whole entry): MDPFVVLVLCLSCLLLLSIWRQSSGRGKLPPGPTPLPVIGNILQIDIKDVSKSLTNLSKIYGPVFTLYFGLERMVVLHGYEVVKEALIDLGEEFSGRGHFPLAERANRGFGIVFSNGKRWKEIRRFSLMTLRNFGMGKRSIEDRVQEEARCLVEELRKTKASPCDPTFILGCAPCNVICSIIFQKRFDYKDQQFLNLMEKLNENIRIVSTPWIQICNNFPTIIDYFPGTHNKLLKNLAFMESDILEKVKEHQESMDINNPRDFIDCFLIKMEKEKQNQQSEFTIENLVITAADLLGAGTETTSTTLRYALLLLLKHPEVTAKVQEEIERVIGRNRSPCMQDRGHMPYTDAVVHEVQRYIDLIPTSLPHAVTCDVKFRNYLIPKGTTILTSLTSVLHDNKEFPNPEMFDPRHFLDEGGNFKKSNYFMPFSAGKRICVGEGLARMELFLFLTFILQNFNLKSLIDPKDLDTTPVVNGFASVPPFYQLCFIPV

CYP2C8 = target: T6, CYP2C8 (Homo sapiens, UniProt P10632); assay: CYP inhibition, human liver microsomes; type: in vitro ADME; conditions: probe paclitaxel and amodiaquine, substrates paclitaxel and amodiaquine, read-out: CYP2C8 Inh %
T6 construct: tissue Eurofins protocol ITEMG232; host or cells: human liver microsomes
T6 sequence (P10632 1-490): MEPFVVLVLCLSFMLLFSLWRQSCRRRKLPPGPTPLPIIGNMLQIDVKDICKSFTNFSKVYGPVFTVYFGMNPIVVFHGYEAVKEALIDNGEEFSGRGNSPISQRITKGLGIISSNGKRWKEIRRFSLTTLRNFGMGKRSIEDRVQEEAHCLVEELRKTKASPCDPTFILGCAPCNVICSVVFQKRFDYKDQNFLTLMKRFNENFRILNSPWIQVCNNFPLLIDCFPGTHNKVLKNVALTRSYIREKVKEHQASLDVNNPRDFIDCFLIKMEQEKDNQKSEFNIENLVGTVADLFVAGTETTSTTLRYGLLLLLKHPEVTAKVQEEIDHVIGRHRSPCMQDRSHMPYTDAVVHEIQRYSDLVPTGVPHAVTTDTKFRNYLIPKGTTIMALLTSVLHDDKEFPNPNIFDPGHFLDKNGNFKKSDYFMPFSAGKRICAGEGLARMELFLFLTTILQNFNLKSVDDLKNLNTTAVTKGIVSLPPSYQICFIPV

CYP2C9 = target: T7, CYP2C9 (Homo sapiens, UniProt P11712); assay: CYP inhibition, human liver microsomes; type: in vitro ADME; conditions: for inhibition at 10 µM: probe diclofenac, substrate diclofenac, human liver microsomes, read-out: CYP2C9 Inh %
T7 construct: tissue Eurofins protocol ITEMG232; host or cells: human liver microsomes
T7 sequence (P11712 whole entry): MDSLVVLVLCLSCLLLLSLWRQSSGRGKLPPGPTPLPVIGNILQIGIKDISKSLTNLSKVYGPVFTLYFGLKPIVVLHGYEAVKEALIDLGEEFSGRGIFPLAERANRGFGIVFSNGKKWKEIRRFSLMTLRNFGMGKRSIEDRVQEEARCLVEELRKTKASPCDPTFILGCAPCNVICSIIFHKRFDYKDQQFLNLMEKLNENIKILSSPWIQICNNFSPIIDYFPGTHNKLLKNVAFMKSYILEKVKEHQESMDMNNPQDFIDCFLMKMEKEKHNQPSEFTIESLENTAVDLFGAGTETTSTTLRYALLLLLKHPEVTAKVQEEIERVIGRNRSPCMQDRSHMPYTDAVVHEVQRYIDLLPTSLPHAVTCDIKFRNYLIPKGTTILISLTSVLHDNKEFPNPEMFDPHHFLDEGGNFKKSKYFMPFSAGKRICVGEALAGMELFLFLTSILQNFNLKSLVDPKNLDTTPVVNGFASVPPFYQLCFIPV

CYP2D6 = target: T8, CYP2D6 (Homo sapiens, UniProt P10635); assay: CYP inhibition, human liver microsomes; type: in vitro ADME; conditions: probe dextromethorphan, substrate dextromethorphan, read-out: CYP2D6 Inh %
T8 construct: tissue Eurofins protocol ITEMG232; host or cells: human liver microsomes
T8 sequence (P10635 whole entry): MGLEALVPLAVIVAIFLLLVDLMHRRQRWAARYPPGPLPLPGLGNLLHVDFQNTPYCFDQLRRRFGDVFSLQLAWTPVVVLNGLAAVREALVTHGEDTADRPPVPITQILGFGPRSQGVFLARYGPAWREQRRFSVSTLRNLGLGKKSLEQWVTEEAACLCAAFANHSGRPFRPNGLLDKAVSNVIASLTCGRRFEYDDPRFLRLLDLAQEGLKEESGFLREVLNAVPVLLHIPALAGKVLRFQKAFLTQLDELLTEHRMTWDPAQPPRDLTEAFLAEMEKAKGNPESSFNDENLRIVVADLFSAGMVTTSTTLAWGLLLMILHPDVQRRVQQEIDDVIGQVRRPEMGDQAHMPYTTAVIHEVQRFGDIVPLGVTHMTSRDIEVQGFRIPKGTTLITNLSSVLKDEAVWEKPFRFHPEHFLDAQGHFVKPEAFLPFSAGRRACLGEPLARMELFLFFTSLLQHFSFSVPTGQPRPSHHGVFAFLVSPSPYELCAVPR

CYP3A4 = target: T9, CYP3A4 (Homo sapiens, UniProt P08684); assay: CYP inhibition, human liver microsomes; type: in vitro ADME; conditions: for inhibition at 10 µM: probe midazolam, substrate midazolam, human liver microsomes, read-out: CYP3A4 midazolam Inh %
T9 construct: tissue Eurofins protocol ITEMG232; host or cells: human liver microsomes
T9 sequence (P08684 whole entry): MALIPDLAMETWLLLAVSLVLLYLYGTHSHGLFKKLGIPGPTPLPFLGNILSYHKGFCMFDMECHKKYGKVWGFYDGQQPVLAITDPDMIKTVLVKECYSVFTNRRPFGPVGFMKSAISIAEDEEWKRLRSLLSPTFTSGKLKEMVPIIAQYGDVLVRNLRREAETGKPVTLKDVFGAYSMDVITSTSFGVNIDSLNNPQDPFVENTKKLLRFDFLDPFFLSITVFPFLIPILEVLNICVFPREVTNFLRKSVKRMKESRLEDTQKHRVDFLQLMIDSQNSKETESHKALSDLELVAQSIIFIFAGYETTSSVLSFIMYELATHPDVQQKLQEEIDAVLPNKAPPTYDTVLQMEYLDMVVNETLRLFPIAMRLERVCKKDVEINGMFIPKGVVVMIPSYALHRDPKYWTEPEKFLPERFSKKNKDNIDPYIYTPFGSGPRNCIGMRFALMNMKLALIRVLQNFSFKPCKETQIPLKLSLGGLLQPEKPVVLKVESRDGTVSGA

CYP3A4&5 = assay: CYP inhibition, human liver microsomes; type: in vitro ADME; conditions: probe testosterone, substrate testosterone, read-out: CYP3A4&5 testosterone Inh %
[4] = with 1 mM NADPH, read-out: T1/2, + NaDPH
[5] = without NADPH, read-out: T1/2, no NaDPH
[6] = single run, 1, 10, 100 and 1000 nM, ligand 125I CGP 42112A
[7] = found during development, background statement

| SMILES | half-life at 1 μM [1, 4] | half-life at 1 μM [1, 5] | IC50 ([2]; mean average of the runs) | Ki ([2]; ligand 125I CGP 42112A) | IC50 [2, 6] | IC50 [3] | inhibition at 10 µM (CYP1A) | inhibition at 10 µM (CYP2B6) | inhibition at 10 µM (CYP2C19) | inhibition at 10 µM (CYP2C8) | inhibition at 10 µM (CYP2C9) | inhibition at 10 µM (CYP2D6) | inhibition at 10 µM (CYP3A4) | inhibition at 10 µM (CYP3A4&5) | inhibition of CYP 2C9 (in words) (CYP2C9; [7]) | inhibition of CYP 3A4 (in words) (CYP3A4; [7]) | metabolic hydrolysis (in words) [1, 7] |
| --- | --- | --- | --- | --- | --- | --- | --- | --- | --- | --- | --- | --- | --- | --- | --- | --- | --- |
| COCCNC(=O)NS(=O)(=O)c1sc(CC(C)C)cc1-c1ccc(Cn2ccnc2C(C)(C)C)cc1 [Example 3] | > 1 h | > 1 h | – | – | – | – | – | – | – | – | – | – | – | – | – | – | – |
| CC(C)Cc1cc(-c2ccc(Cn3ccnc3C(C)(C)C)c(F)c2)c(S(=O)(=O)NC(=O)NCc2ccccn2)s1 [Example 5, 1-[[3-[4-[(2-Tert-butylimidazol-1-yl)methyl]-3-fluoro-phenyl]-5-isobutyl-2-thienyl]sulfonyl]-3-(2-pyridylmethyl)urea] | > 1 h | > 1 h | – | – | 0.44 nM | 1800 nM | 34.1% | 24.9% | 52.1% | 78.3% | 62.1% | 23.2% | 43% | 18.9% | – | – | – |
| CCNC(=O)NS(=O)(=O)c1sc(CC(C)C)cc1-c1ccc(Cn2ccnc2C(C)(C)C)c(F)c1 [Example 6, 1-[[3-[4-[(2-Tert-butylimidazol-1-yl)methyl]-3-fluoro-phenyl]-5-isobutyl-2-thienyl]sulfonyl]-3-ethyl-urea] | > 1 h | > 1 h | – | – | – | – | 15.8% | 27% | 35.1% | 77.6% | 39.7% | 18.8% | 23.8% | 10.8% | – | – | – |
| CC(C)Cc1cc(-c2ccc(Cn3ccnc3C(C)(C)C)c(F)c2)c(S(=O)(=O)NC(=O)NCc2cccs2)s1 [Example 7, 1-[[3-[4-[(2-Tert-butylimidazol-1-yl)methyl]-3-fluoro-phenyl]-5-isobutyl-2-thienyl]sulfonyl]-3-(2-thienylmethyl)urea] | 0.383 h | > 1 h | – | – | 5 nM | 3100 nM | 20.7% | 50.5% | 49.1% | 79.9% | 76.3% | 13.8% | 52.3% | 16.7% | – | – | – |
| CCCCOC(=O)NS(=O)(=O)c1sc(CC(C)C)cc1-c1ccc(Cn2ccnc2)cc1 [Example C21, N-butyloxycarbonyl-3-(4-imidazol-1-ylmethylphenyl)-5-isobutylthiophene-2-sulfon-amide, reference compound] | – | – | – | – | – | – | – | – | – | – | – | – | – | – | potent inhibitor | potent inhibitor | rapidly hydrolysed to an inactive sulfonamide metabolite |

The next lines start with results.

| half-life at 1 μM [1, 4] | half-life at 1 μM [1, 5] | IC50 ([2]; mean average of the runs) | Ki ([2]; ligand 125I CGP 42112A) | IC50 [2, 6] | IC50 [3] | inhibition at 10 µM (CYP1A) | inhibition at 10 µM (CYP2B6) | inhibition at 10 µM (CYP2C19) | inhibition at 10 µM (CYP2C8) | inhibition at 10 µM (CYP2C9) | inhibition at 10 µM (CYP2D6) | inhibition at 10 µM (CYP3A4) | inhibition at 10 µM (CYP3A4&5) | inhibition of CYP 2C9 (in words) (CYP2C9; [7]) | inhibition of CYP 3A4 (in words) (CYP3A4; [7]) | SMILES | metabolic hydrolysis (in words) [1, 7] |
| --- | --- | --- | --- | --- | --- | --- | --- | --- | --- | --- | --- | --- | --- | --- | --- | --- | --- |
| > 1 h | > 1 h | 4.2 nM | 2.8 nM | 2.6 nM and 5.7 nM | 3000 nM | -13.2% | 96.5% | 49.1% | 77.8% | 58.4% | 13.8% | 11.6% | 11.8% | – | – | CC(C)Cc1cc(-c2ccc(Cn3ccnc3C(C)(C)C)cc2)c(S(=O)(=O)NC(=O)NCc2ccco2)s1 [Example 1, Furan-2-ylmethyl-3-[[5-isobutyl-3-[4-[(2-tert-butyl-imidazol-1-yl)methyl]phenyl]-2-thienyl]sulfonyl]urea] | – |
| 0.533 h | > 1 h | 2.5 nM | 1.25 nM | 2.5 nM | 2000 nM | -1.8% | 9.6% | 56.8% | 81.8% | 64.6% | 33.6% | 40.9% | 18% | – | – | CC(C)Cc1cc(-c2ccc(Cn3ccnc3C(C)(C)C)cc2)c(S(=O)(=O)NC(=O)NCc2cccs2)s1 [Example 2] | – |
| > 1 h | > 1 h | 2.9 nM | 1.9 nM | 3.7 nM and 2.1 nM | 3000 nM | -0.5% | 13.8% | 44.4% | 79.3% | 43.5% | 24.3% | 33.7% | 16.7% | – | – | CC(C)Cc1cc(-c2ccc(Cn3ccnc3C(C)(C)C)cc2)c(S(=O)(=O)NC(=O)NCc2ccccn2)s1 [Example 4] | – |
